Measured values taken from ChEMBL document CHEMBL5257112, “Discovery of 4-oxo-4,5-dihydropyrazolo[1,5-a]quinoxaline-7-carboxamide derivatives as PI3Kα inhibitors via virtual screening and docking-based structure optimization” (Bioorg Med Chem, 2023).

What was measured:
[1] = target: Phosphatidylinositol 4,5-bisphosphate 3-kinase catalytic subunit alpha isoform (Homo sapiens, UniProt P42336); assay: Inhibition of PI3Kalpha (unknown origin) using PIP2:PS as substrate preincubated for 1 hr followed by ATP and substate addition and measured after 1 hr by ADP-glo reagent based assay
[2] = target: Phosphatidylinositol 4,5-bisphosphate 3-kinase catalytic subunit gamma isoform (Homo sapiens, UniProt P48736); assay: Inhibition of PI3Kgamma (unknown origin) using PIP2:PS as substrate preincubated for 1 hr followed by ATP and substate addition and measured after 1 hr by ADP-glo reagent based assay
[3] = target: T1, Phosphatidylinositol 4,5-bisphosphate 3-kinase catalytic subunit delta isoform (Homo sapiens, UniProt O00329); assay: Inhibition of PI3Kdelta (unknown origin) using PIP2:PS as substrate preincubated for 1 hr followed by ATP and substate addition and measured after 1 hr by ADP-glo reagent based assay
T1 sequence (O00329 whole entry): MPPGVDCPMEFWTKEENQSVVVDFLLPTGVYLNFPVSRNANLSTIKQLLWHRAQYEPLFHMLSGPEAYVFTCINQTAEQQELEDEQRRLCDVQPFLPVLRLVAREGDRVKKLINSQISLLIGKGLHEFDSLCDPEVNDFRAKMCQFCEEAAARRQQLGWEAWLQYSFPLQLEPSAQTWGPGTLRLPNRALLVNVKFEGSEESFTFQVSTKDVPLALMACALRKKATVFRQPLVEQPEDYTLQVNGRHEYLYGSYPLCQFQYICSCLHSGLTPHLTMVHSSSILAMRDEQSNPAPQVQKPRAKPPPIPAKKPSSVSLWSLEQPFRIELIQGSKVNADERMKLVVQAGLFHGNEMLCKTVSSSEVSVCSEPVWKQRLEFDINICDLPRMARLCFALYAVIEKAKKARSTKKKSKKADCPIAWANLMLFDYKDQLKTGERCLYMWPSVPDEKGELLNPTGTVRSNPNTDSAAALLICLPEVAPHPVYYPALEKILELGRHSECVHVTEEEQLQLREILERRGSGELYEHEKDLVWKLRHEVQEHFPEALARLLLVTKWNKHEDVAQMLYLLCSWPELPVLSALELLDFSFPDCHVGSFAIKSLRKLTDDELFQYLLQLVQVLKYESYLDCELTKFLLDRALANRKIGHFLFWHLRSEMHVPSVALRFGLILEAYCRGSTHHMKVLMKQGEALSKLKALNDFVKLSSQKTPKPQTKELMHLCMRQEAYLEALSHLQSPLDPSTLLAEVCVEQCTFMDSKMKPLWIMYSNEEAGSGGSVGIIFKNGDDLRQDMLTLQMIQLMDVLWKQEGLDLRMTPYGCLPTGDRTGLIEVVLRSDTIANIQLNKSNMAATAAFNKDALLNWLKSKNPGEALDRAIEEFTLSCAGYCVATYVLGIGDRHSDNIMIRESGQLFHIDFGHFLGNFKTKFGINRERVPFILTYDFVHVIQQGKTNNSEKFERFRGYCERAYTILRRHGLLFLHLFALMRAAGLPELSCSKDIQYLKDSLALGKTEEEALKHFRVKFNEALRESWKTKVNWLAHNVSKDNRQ

[4] = AUC(0 to t) in mouse at 1 mg/kg, iv measured after 24 hrs by LC/MS/MS analysis; type: ADME, organism-based; parameters: dose 1 mg/kg, time 24 hrs, route iv; settings: in vivo
[5] = Cmax in mouse at 1 mg/kg, iv measured after 24 hrs by LC/MS/MS analysis; type: ADME, organism-based; parameters: time 24 hrs, dose 1 mg/kg, route iv; settings: in vivo
[6] = Cmax in mouse at 5 mg/kg, po measured after 24 hrs by LC/MS/MS analysis; type: ADME, organism-based; parameters: time 24 hrs, dose 5 mg/kg, route po; settings: in vivo
[7] = system: Kasumi 1; assay: Antiproliferative activity against human Kasumi 1 cells assessed as cell growth inhibition incubated for 72 hrs by MTT assay; type: functional, cell-based; settings: Kasumi 1, 72 h
[8] = AUC(0 to t) in mouse at 5 mg/kg, po measured after 24 hrs by LC/MS/MS analysis; type: ADME, organism-based; parameters: dose 5 mg/kg, time 24 hrs, route po; settings: in vivo
[9] = target: Phosphatidylinositol 4,5-bisphosphate 3-kinase catalytic subunit beta isoform (Homo sapiens, UniProt P42338); assay: Inhibition of PI3Kbeta (unknown origin) using PIP2:PS as substrate preincubated for 1 hr followed by ATP and substate addition and measured after 1 hr by ADP-glo reagent based assay
[10] = Volume of distribution in mouse at 5 mg/kg, po measured after 24 hrs by LC/MS/MS analysis; type: ADME, organism-based; settings: in vivo
[11] = Half life in mouse at 5 mg/kg, po measured after 24 hrs by LC/MS/MS analysis; type: ADME, organism-based; settings: in vivo
[12] = Clearance in mouse at 5 mg/kg, po measured after 24 hrs by LC/MS/MS analysis; type: ADME, organism-based; settings: in vivo
[13] = Half life in mouse at 1 mg/kg, iv measured after 24 hrs by LC/MS/MS analysis; type: ADME, organism-based; settings: in vivo
[14] = Oral bioavailability in mouse at 5 mg/kg measured after 24 hrs by LC/MS/MS analysis; type: ADME, organism-based; settings: in vivo
[15] = Inhibition of PI3K/AKT/mTOR signaling pathway in human T47D cells assessed as reduction in Akt phosphorylation at S473 residue preincubated for 1 hr followed by recombinant human insulin-like growth factor 1 stimulation by Western blot analysis; type: cell-based; settings: dose 0.01-10 µM
[16] = system: T47D; assay: Antiproliferative activity against human T47D cells expressing PIK3CA mutant assessed as cell growth inhibition incubated for 72 hrs by MTT assay; type: functional, cell-based
[17] = Clearance in mouse at 1 mg/kg, iv measured after 24 hrs by LC/MS/MS analysis; type: ADME, organism-based; settings: in vivo
[18] = Volume of distribution in mouse at 1 mg/kg, iv measured after 24 hrs by LC/MS/MS analysis; type: ADME, organism-based; settings: in vivo

Chain of Phosphatidylinositol 4,5-bisphosphate 3-kinase catalytic subunit alpha isoform (P42336 whole entry, canonical isoform): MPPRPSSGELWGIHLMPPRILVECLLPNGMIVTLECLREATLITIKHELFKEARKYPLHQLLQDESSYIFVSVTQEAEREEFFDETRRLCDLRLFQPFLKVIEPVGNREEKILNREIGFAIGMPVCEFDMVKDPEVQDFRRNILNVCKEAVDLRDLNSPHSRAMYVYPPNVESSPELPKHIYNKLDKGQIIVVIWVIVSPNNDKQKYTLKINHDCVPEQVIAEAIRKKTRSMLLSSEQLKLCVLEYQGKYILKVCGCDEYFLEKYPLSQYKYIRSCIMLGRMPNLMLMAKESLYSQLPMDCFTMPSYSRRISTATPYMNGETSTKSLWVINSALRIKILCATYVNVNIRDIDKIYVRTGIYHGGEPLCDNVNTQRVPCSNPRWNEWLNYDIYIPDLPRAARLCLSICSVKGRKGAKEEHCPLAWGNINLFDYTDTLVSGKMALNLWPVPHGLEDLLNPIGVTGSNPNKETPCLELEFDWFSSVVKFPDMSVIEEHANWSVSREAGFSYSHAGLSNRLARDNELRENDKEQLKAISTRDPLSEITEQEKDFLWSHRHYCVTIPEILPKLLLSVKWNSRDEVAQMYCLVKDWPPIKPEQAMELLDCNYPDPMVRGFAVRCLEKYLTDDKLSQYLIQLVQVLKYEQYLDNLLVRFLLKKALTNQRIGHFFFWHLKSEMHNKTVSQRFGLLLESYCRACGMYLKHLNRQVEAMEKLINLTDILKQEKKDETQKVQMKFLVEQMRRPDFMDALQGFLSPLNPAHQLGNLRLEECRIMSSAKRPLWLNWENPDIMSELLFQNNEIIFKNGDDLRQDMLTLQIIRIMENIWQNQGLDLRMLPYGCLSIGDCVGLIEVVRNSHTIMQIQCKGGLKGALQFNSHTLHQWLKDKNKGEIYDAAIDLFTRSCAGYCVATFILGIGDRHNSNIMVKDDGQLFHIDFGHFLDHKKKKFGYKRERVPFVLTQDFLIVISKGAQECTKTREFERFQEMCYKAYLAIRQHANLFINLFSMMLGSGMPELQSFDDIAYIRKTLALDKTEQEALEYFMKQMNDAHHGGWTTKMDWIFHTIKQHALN
Chain of Phosphatidylinositol 4,5-bisphosphate 3-kinase catalytic subunit gamma isoform (P48736 whole entry, canonical isoform): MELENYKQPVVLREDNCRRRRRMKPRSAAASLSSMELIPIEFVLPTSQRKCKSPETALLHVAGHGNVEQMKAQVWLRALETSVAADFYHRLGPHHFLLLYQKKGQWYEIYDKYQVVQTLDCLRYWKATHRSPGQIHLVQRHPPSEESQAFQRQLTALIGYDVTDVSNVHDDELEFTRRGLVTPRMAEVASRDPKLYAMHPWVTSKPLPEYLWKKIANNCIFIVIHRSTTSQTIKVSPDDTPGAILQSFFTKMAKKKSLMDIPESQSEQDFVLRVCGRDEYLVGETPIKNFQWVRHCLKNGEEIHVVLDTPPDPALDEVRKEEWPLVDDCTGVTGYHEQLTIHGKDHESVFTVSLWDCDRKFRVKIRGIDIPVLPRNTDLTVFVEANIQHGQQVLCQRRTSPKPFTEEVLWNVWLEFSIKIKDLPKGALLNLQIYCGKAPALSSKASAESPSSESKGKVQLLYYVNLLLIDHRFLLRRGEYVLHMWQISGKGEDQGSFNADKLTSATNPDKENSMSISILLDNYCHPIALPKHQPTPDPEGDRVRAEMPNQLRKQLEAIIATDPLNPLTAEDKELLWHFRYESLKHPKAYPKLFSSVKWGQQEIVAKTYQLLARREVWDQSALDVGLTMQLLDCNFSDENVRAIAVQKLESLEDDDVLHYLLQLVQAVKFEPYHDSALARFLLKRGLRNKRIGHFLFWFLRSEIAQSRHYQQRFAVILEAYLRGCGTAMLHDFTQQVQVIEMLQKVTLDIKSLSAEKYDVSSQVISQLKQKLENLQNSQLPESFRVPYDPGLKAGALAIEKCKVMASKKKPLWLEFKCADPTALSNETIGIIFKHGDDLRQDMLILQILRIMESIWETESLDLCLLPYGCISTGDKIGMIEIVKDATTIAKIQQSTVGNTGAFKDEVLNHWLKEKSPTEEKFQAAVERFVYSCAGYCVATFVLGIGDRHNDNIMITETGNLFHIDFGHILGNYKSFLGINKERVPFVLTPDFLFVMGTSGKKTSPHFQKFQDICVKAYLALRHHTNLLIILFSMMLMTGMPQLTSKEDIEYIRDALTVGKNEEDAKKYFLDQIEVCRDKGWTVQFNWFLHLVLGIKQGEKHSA
Chain of Phosphatidylinositol 4,5-bisphosphate 3-kinase catalytic subunit beta isoform (P42338 whole entry, canonical isoform): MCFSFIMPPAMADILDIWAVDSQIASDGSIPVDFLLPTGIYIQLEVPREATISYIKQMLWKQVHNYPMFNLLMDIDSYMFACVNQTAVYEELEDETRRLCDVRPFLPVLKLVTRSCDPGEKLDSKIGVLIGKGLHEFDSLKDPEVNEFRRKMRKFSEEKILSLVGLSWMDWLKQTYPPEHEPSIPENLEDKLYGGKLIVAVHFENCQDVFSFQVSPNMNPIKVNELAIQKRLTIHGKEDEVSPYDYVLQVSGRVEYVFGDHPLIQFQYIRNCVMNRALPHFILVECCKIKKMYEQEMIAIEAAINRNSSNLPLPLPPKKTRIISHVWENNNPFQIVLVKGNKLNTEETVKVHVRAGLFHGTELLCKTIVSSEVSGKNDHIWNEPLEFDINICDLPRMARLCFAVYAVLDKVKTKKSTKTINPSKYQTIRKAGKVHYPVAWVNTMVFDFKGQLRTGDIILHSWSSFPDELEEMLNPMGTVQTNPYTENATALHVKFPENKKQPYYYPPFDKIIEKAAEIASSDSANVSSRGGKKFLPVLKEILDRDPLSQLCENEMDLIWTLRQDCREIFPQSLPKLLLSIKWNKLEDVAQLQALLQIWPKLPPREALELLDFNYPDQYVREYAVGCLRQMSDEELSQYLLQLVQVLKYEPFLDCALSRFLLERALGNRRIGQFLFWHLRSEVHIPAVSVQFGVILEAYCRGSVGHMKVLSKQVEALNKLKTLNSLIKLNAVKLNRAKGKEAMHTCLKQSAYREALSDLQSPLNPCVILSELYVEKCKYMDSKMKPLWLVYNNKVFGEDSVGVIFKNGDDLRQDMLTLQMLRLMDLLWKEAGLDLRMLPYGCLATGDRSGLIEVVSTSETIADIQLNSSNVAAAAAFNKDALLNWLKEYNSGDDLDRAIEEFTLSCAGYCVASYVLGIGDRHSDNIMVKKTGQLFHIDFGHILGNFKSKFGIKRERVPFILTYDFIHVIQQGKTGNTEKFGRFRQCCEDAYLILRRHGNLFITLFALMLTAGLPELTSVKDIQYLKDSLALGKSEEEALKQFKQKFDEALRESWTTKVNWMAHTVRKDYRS

SMILES	IC50 [1]	other results
CCn1c(=O)c2ccnn2c2ccc(C(=O)N3CCN(c4ccccc4)CC3)cc21	> 20 µM	–
CCN1C(=O)[C@H]2CCCN2c2ccc(C(=O)NCc3cccnc3)cc21	> 20 µM	–
CCNC(=O)c1ccc2c(c1)n(CCCN(C)C)c(=O)c1ccnn12	4.26 µM	–
CCn1c(=O)c2ccnn2c2ccc(C(=O)NCCCN3CCOCC3)cc21	4.18 µM	–
O=C(c1ccc2c(c1)[nH]c(=O)c1ccnn12)N1CCN(C2CCCC2)CC1	> 20 µM	–
CCn1c(=O)c2ccnn2c2cc(N)c(C(=O)NCc3cccnc3)cc21	0.87 µM	IC50 [2]: 1.4 µM; IC50 [3]: 5.74 µM; AUC(0-t) at 24 h [4]: < 100 ng·h/mL; Cmax [5]: < 50 ng/mL; Cmax [6]: < 50 ng/mL; IC50 [7]: 4.38 µM; AUC(0-t) at 24 h [8]: < 100 ng·h/mL; IC50 [9]: 0.72 µM
CCn1c(=O)c2ccnn2c2cc(N)c(C(=O)NCc3cncnc3)cc21	0.24 µM	Vd [10]: 6.36 L/kg; IC50 [2]: 0.83 µM; IC50 [3]: 4.1 µM; AUC(0-t) at 24 h [4]: 717 ng·h/mL; half-life [11]: 4.97 h; CL/F [12]: 15.7 mL/min/kg; half-life [13]: 2.52 h; Cmax [5]: 567 ng/mL; bioavailability [14]: 91.8%; inhibition [15]: Dose-Dependent Effect; Cmax [6]: 863 ng/mL; IC50 [7]: 1.64 µM; AUC(0-t) at 24 h [8]: 3290 ng·h/mL; IC50 [16]: 1.82 µM; clearance [17]: 20.5 mL/min/kg; IC50 [9]: > 10 µM; Vd [18]: 3.13 L/kg
CCn1c(=O)c2ccnn2c2cc(NC(C)=O)c(C(=O)NCc3cncnc3)cc21	> 20 µM	IC50 [2]: > 20 µM; IC50 [3]: > 20 µM; IC50 [9]: > 20 µM
Cn1c(=O)c2ccnn2c2ccc(C(=O)NCCN3CCOCC3)cc21	12.3 µM	–
CCNC(=O)c1ccc2c(c1)n(Cc1ccccc1)c(=O)c1ccnn12	3.61 µM	–
O=C(NCc1cccnc1)c1ccc2c(c1)n(Cc1ccc(OC(F)(F)F)cc1)c(=O)c1ccnn12	> 20 µM	–
O=C(NCCN1CCOCC1)c1ccc2c(c1)n(Cc1ccc(F)cc1)c(=O)c1ccnn12	9.62 µM	–
CCn1c(=O)c2ccnn2c2ccc(C(=O)NCc3cnccn3)cc21	4.76 µM	–
CCn1c(=O)c2ccnn2c2ccc(C(=O)N3CCN(C)CC3)cc21	> 20 µM	–
CCn1c(=O)c2ccnn2c2ccc(C(=O)NCc3ccccn3)cc21	2.86 µM	–
CCn1c(=O)c2ccnn2c2cc(NC)c(C(=O)NCc3cccnc3)cc21	> 20 µM	IC50 [2]: > 20 µM; IC50 [3]: > 20 µM; IC50 [9]: 4.89 µM
CCN1C(=O)C2CCCCN2c2ccc(C(=O)NCc3cccnc3)cc21 (centres undefined)	> 20 µM	–
CCn1c(=O)c2ccnn2c2ccc(C(=O)NCc3cncc(C)c3)cc21	2.65 µM	–
CS(=O)(=O)c1ccc(Cn2c(=O)c3ccnn3c3ccc(C(=O)NCc4cccnc4)cc32)cc1	> 20 µM	–
CCCCn1c(=O)c2ccnn2c2ccc(C(=O)NCc3cccnc3)cc21	2 µM	–
CCn1c(=O)c2ccnn2c2ccc(C(=O)NCCN3CCOCC3)cc21	10.9 µM	–
CCNC(=O)c1ccc2c(c1)n(CCOC)c(=O)c1ccnn12	6.43 µM	–
Cc1nc(NC(=O)N2CCC[C@H]2C(N)=O)sc1-c1ccnc(C(C)(C)C(F)(F)F)c1 [ALPELISIB]	–	IC50 [7]: 0.44 µM; IC50 [16]: 0.1 µM
CCn1c(=O)c2nccn2c2ccc(C(=O)NCc3cccnc3)cc21	> 20 µM	–
CCN1C(=O)N2CCCN=C2c2ccc(C(=O)NCc3cccnc3)cc21	> 20 µM	–

SMILES	IC50 [1]	other results
CCn1c(=O)c2ccnn2c2ccc(C(=O)NCc3cccnc3C)cc21	4.51 µM	–
CCn1c(=O)c2ccnn2c2ccc(C(=O)NCc3ccncc3)cc21	2.86 µM	–
CCN1C(=O)N2CC(C)(C)CN=C2c2ccc(C(=O)NCc3cccnc3)cc21	> 20 µM	–
CCn1c(=O)c2ccnn2c2ccc(C(=O)NCc3cccnc3)cc21	3.52 µM	–
O=C(NCc1cccnc1)c1ccc2c(c1)n(CC1CC1)c(=O)c1ccnn12	2.65 µM	–
CN1CCC(N2CCN(C(=O)c3ccc4c(c3)[nH]c(=O)c3ccnn34)CC2)CC1	> 20 µM	–
CCNC(=O)c1ccc2c(c1)n(CCN1CCCCC1)c(=O)c1ccnn12	5.25 µM	–
CCn1c(=O)c2ccnn2c2ccc(C(=O)NCc3cnccc3C)cc21	3.52 µM	–
CC(C)(C)c1ccc(Cn2c(=O)c3ccnn3c3ccc(C(=O)NCc4cccnc4)cc32)cc1	> 20 µM	–
CNC(=O)c1ccc2c(c1)n(CCCN(C)C1CCCCC1)c(=O)c1ccnn12	11 µM	–
O=C(NCc1cccnc1)c1ccc2c(c1)n(Cc1ccc(C(F)(F)F)cc1)c(=O)c1ccnn12	> 20 µM	–
CCn1c(=O)c2cnc(C)n2c2ccc(C(=O)NCc3cccnc3)cc21	3.63 µM	–
CCn1c(=O)c2ccnn2c2ccc(C(=O)NCc3cnn(C)c3)cc21	5.47 µM	–
CCn1c(=O)c2cc(C)nn2c2ccc(C(=O)NCc3cccnc3)cc21	11.4 µM	–
CCn1c(=O)c2ccnn2c2ccc(C(=O)NCCc3cccnc3)cc21	13.9 µM	–
CCN1C(=O)[C@@H]2CCCN2c2ccc(C(=O)NCc3cccnc3)cc21	> 20 µM	–
CCNC(=O)c1ccc2c(c1)n(CC)c(=O)c1ccnn12	9.3 µM	–
CCn1c(=O)c2ccnn2c2ccc(C(=O)NCc3ccc(C)nc3)cc21	3.62 µM	–
O=C(NCCN1CCOCC1)c1ccc2c(c1)n(Cc1ccccc1)c(=O)c1ccnn12	10.3 µM	–
CCn1c(=O)c2cc(C(C)C)nn2c2ccc(C(=O)NCc3cccnc3)cc21	> 20 µM	–
CCn1c(=O)c2ccnn2c2ccc(C(=O)NCc3cncnc3)cc21	1.59 µM	–
CCn1c(=O)c2ccnn2c2cc(N(C)C)c(C(=O)NCc3cccnc3)cc21	> 20 µM	IC50 [2]: > 20 µM; IC50 [3]: > 20 µM; IC50 [9]: 15 µM
CCN1C(=O)N2CCN=C2c2ccc(C(=O)NCc3cccnc3)cc21	> 20 µM	–
CCn1c(=O)c2cccn2c2ccc(C(=O)NCc3cccnc3)cc21	> 20 µM	–
